From patent US20230146395A1, “Substituted Pyrimidines and Uses Thereof” (Verge Analytics, Inc., priority 2020, published 2023)

Legend:
[1] = test system: HEK 293T transfected with plasmids containing TDP-43 Q331K mutation; experiment: HEK/TDP Survival assay (Cell-Titer-Glo, 48 hrs, maximal effect of rescue); assay type: cell-based; conditions: Homo sapiens, HEK 293T with TDP-43 Q331K, (n) in brackets
Experimental: HEK/TDP Survival assay: Immortalized human embryonic kidney 293T (HEK 293T) were transfected with plasmids containing TDP-43 Q331K mutation, resulting in an increase in cell death that is biologically relevant to ALS patients. Cell death is measured as reductions in the amount of ATP, an indicator of metabolically active cells, that is quantified by a luminescence Cell-Titer-Glo® (CTG) reagent. Compounds are evaluated in this model for changes in CTG compared to a no treatment group. Increased signal indicates improved survival (rescue) and decreased signal indicates decreased survival.
Cell rescue was measured in a 96-well format with eight different concentrations of the test compound over 48 hours (hrs) with 6 replicates. The Promega Cell-Titer-Glo® Luminescent Cell Viability Assay was used to quantify ATP, an indicator of metabolically active cells (see protocol: https://www.promega.com/-/media/files/resources/protocols/technical-manuals/101/celltiterglo-2-0-assay-protocol.pdf?la=en). The luminescence signal was detected using the PerkinElmer EnVision or Molecular Devices SpectraMax.
The effect of a compound at a given dose on cell viability was determined using a three step procedure. First, Hedge's g for the Cell Titer-Glo luminescence values using six untreated wells on every plate as a control was calculated. […] Finally, values from all compound-dose pairs were corrected for multiple hypothesis testing using the Empirical Bayes framework of Stephens, M. (False discovery rates: a new deal, Biostatistics, 18 [2], 2017, 275-294) yielding credible intervals for the measured effect and associated s values.
Briefly, this method computes a local false sign rate for each experiment. Analogous to the local false discovery rate of Efron, B. (Size, power and false discovery rates, Ann. Statist. 35 [4], 2007, 1351-1377) this value measures the confidence in the sign of each effect (rather than confidence in each effect being non-zero). The s values reported in the previous figures are the expected fraction of errors if estimating the sign of all effects with greater absolute local false sign rate, defined in analogy to the q value of Storey, JD (The positive false discovery rate: a Bayesian interpretation and the q-value, Ann. Statist. 31 [6] 2003, 2013-2035).
Drugs that yielded signed log s values greater than 3 were considered hits. This threshold was determined by a separate calibration experiment in which Cell Titer-Glo® was measured in blank plates consisting of untreated cells to assess the noise inherent in the assay. Data are presented as the maximal effect of rescue obtained from the dose-response curve.

[2] = biological target: T1, Full length human recombinant PIKFYVE (Homo sapiens, UniProt Q9Y2I7); experiment: Inhibition of PIKfyve (microfluidic electrophoresis kinase assay, PI3P/PS substrate); assay type: biochemical; conditions: 12 concentrations
T1 construct: Full length human recombinant PIKFYVE; purchased Carna Biosciences (Kobe, Japan); host or cells: baculovirus expression system
How it was run: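 Percent inhibition, from 12 concentrations, was derived from the product/(substrate+product) peak ratio separated by microfluidic electrophoresis, normalized to DMSO-only and enzyme-free controls. Reactions ran 3 h at room temperature: 2 nM N-terminal GST-PIKFYVE, 1 μM fluorescent PI3P in PS vesicles, […], HEPES pH 7.5, MgCl2/MnCl2.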

T1 sequence (Q9Y2I7 whole entry): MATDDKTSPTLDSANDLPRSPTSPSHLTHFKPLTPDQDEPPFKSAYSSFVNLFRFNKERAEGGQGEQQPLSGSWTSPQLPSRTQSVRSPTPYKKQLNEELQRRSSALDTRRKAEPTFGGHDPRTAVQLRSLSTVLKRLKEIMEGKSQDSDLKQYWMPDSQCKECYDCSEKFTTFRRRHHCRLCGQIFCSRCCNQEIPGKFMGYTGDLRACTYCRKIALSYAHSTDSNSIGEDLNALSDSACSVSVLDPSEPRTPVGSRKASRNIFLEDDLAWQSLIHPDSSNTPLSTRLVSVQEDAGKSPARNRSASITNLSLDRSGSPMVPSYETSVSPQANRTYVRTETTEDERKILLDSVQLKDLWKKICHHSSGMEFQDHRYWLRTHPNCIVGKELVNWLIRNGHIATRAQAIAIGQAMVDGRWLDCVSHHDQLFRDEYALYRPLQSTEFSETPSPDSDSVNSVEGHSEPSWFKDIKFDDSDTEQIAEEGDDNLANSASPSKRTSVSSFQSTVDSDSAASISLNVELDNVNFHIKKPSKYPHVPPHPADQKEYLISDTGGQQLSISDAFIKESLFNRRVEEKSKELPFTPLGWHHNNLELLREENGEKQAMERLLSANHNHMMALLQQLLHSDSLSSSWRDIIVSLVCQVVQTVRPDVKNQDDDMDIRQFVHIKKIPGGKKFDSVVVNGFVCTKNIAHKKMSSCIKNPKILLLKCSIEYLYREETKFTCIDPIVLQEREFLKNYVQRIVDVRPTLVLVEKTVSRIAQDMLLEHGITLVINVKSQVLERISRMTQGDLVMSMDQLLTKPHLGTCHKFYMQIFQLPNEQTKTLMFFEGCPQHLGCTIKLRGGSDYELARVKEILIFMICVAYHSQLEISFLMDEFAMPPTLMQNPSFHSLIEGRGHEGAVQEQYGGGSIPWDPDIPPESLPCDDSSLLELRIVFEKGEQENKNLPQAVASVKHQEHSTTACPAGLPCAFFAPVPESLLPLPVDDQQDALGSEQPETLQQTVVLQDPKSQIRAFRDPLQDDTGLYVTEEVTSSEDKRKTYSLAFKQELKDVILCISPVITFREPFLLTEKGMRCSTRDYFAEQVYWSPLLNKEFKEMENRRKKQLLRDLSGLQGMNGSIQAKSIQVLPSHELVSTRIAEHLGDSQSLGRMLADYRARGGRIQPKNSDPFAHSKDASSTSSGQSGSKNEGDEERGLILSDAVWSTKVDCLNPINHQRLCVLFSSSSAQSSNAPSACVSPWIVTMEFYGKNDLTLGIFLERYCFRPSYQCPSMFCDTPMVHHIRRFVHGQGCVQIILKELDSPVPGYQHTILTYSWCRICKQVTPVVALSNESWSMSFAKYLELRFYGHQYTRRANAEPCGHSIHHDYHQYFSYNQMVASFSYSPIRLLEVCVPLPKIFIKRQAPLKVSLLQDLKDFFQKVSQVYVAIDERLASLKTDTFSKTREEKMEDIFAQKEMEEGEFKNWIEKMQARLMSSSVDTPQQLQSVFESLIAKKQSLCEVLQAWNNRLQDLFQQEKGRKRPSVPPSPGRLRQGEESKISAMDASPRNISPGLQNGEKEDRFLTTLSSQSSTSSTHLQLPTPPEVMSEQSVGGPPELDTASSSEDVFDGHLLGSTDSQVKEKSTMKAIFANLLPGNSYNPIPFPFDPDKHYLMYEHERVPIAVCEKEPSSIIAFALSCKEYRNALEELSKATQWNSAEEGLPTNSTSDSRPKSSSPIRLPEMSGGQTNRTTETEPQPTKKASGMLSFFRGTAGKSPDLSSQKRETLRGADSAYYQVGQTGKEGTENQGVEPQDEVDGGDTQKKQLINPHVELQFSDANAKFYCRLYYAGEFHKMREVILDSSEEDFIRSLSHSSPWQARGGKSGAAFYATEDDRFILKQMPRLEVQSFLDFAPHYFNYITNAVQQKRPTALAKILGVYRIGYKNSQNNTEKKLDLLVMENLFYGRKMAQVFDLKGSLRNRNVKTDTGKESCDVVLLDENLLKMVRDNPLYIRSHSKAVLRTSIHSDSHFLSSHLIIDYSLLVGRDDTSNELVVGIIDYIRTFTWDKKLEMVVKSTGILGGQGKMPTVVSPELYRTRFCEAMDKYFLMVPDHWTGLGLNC

SMILES	IC50 [2] [nM]	EC50 [1] [nM]
c1ccc(-c2cc(Nc3nc(N4CCOCC4)c4oc(-c5ccncc5)cc4n3)no2)cc1 [Compound 43, 4-morpholino-N-(5-phenylisoxazol-3-yl)-6-(pyridin-4-yl)furo[3,2-d]pyrimidin-2-amine]	8	47.5
Cc1cccc(-c2ccn(-c3nc(N4CCOCC4)c4oc(-c5ccncc5)cc4n3)n2)c1 [Compound 89, 4-morpholino-6-(pyridin-4-yl)-2-(3-(m-tolyl)-1H-pyrazol-1-yl)furo[3,2-d]pyrimidine]	19	31.5
Cc1cccc(-c2ccn(-c3nc(N4CCOCC4)c4oc(-c5cccnc5)cc4n3)n2)c1 [Compound 90]	7.7	20.5
Cc1cccc(-c2ccn(-c3nc(N4CCOCC4)c4oc(C(=O)NCCCCN(C)C)cc4n3)n2)c1 [Compound 108, N-(4-(dimethylamino)butyl)-4-morpholino-2-(3-(m-tolyl)-1H-pyrazol-1-yl)furo[3,2-d]pyrimidine-6-carboxamide]	23.3	53
Cc1cccc(-c2ccn(-c3nc(N4CCOCC4)c4oc(C(=O)NCCCN(C)C)cc4n3)n2)c1 [Compound 109, N-(3-(dimethylamino)propyl)-4-morpholino-2-(3-(m-tolyl)-1H-pyrazol-1-yl)furo[3,2-d]pyrimidine-6-carboxamide]	11.7	46.5
Cc1cccc(-c2cnn(-c3nc(N4CCOCC4)c4oc(C(=O)NCCCCN(C)C)cc4n3)c2)c1 [Compound 110, N-(4-(dimethylamino)butyl)-4-morpholino-2-(4-(m-tolyl)-1H-pyrazol-1-yl)furo[3,2-d]pyrimidine-6-carboxamide]	2.9	33
Cc1cccc(-c2cnn(-c3nc(N4CCOCC4)c4oc(C(=O)NCCCN(C)C)cc4n3)c2)c1 [Compound 111, N-(3-(dimethylamino)propyl)-4-morpholino-2-(4-(m-tolyl)-1H-pyrazol-1-yl)furo[3,2-d]pyrimidine-6-carboxamide]	3.1	35.5

The next lines start with results.

IC50 [2] [nM]	SMILES	EC50 [1] [nM]
47.3	COCCNC(=O)c1cc2nc(-n3ccc(-c4cccc(C)c4)n3)nc(N3CCOCC3)c2o1 [Compound 93, N-(2-methoxyethyl)-4-morpholino-2-(3-(m-tolyl)-1H-pyrazol-1-yl)furo[3,2-d]pyrimidine-6-carboxamide]	60
11.8	CCNC(=O)c1cc2nc(-n3ccc(-c4cccc(C)c4)n3)nc(N3CCOCC3)c2o1 [Compound 95, N-ethyl-4-morpholino-2-(3-(m-tolyl)-1H-pyrazol-1-yl)furo[3,2-d]pyrimidine-6-carboxamide]	94
15	Cc1cccc(-c2ccn(-c3nc(N4CCOCC4)c4oc(C(=O)NC5CC5)cc4n3)n2)c1 [Compound 96, N-cyclopropyl-4-morpholino-2-(3-(m-tolyl)-1H-pyrazol-1-yl)furo[3,2-d]pyrimidine-6-carboxamide]	17.5
17	Cc1cccc(-c2ccn(-c3nc(N4CCOCC4)c4oc(C(=O)NCC5CC5)cc4n3)n2)c1 [Compound 97, N-(cyclopropylmethy 1)-4-morpholino-2-(3-(m-tolyl)-1H-pyrazol-1-yl)furo[3,2-d]pyrimidine-6-carboxamide]	16.5
41.2	Cc1cccc(-c2ccn(-c3nc(N4CCOCC4)c4oc(C(=O)NC5COC5)cc4n3)n2)c1 [Compound 104, 4-morpholino-N-(oxetan-3-yl)-2-(3-(m-tolyl)-1H-pyrazol-1-yl)furo[3,2-d]pyrimidine-6-carboxamide]	98
32.3	Cc1cccc(-c2ccn(-c3nc(N4CCOCC4)c4oc(C(=O)NCC5COC5)cc4n3)n2)c1 [Compound 105, 4-morpholino-N-(oxetan-3-ylmethyl)-2-(3-(m-tolyl)-1H-pyrazol-1-yl)furo[3,2-d]pyrimidine-6-carboxamide]	100
